The experiment relates to BDF1 mice, P388 leukemia ip, median survival T/C. Briefly: NCI In Vivo Anticancer Drug Screen. Data for tumor model P388 Leukemia (intraperitoneal) in B6D2F1 (BDF1) mice. As to conditions: endpoint: median survival time, higher = longer survival. The essentials:
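Each value expresses how treatment altered survival: treated-mouse outcome over vehicle-mouse outcome, both groups bearing the transplanted tumour.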

[1] abbreviates: dose: 12.5 mg/kg/injection, schedule: Q01DX009 (ip), vehicle: saline with Tween-80.
[2] abbreviates: dose: 25.0 mg/kg/injection, schedule: Q01DX009 (ip), vehicle: saline with Tween-80.
Where [3] appears, read: dose: 100.0 mg/kg/injection, schedule: Q04DX003 (ip), vehicle: saline sonified.

Values joined by “and” are separate entries in the source; they are usually repeats but may differ in a detail not shown here. Equal entries are not always repeated. Toxic doses and inconclusive results are not listed.

As to `O/N=c1\cc(-c2ccccc2)oc2ccccc12`, the T/C is 95 % of control (dose: 3.13 mg/kg/injection, schedule: Q01DX009 (ip), vehicle: saline with Tween-80); 95 % of control (dose: 6.25 mg/kg/injection, schedule: Q01DX009 (ip), vehicle: saline with Tween-80); 112 % of control under setting [1]; 123 % of control under setting [2].

As to `C=C1C(=O)OC2/C=C(\C)CC/C=C(/C)CC(O)C12` (centres undefined), the T/C is, setting by setting: (dose: 5.0 mg/kg/injection, schedule: Q04DX003 (ip), vehicle: saline with Tween-80) 98 % of control; (dose: 10.0 mg/kg/injection, schedule: Q04DX003 (ip), vehicle: saline with Tween-80) 114 % of control; (dose: 20.0 mg/kg/injection, schedule: Q04DX003 (ip), vehicle: saline with Tween-80) 98 % of control.

With `O=C(O)CCCOc1cc(Cl)c(Cl)cc1Cl`, the T/C runs as follows: (dose: 50.0 mg/kg/injection, schedule: Q01DX009 (ip), vehicle: gum acacia) 107 % of control; (dose: 50.0 mg/kg/injection, schedule: Q04DX003 (ip), vehicle: gum acacia) 100 % of control; (dose: 100.0 mg/kg/injection, schedule: Q01DX009 (ip), vehicle: gum acacia) 107 % of control; (dose: 100.0 mg/kg/injection, schedule: Q04DX003 (ip), vehicle: gum acacia) 104 % of control; (dose: 200.0 mg/kg/injection, schedule: Q01DX009 (ip), vehicle: gum acacia) 107 % of control; (dose: 200.0 mg/kg/injection, schedule: Q04DX003 (ip), vehicle: gum acacia) 122 % of control.

Consider `CC1(C)N=C(N)N=C(N)N1c1ccc(CCC(=O)Nc2ccc(S(=O)(=O)F)cc2)cc1`, for which the T/C (dose: 0.88 mg/kg/injection, schedule: Q01DX009 (ip), vehicle: saline with Tween-80) is 108 % of control; the T/C (dose: 1.32 mg/kg/injection, schedule: Q01DX009 (ip), vehicle: saline with Tween-80) was 112 % of control; the T/C (dose: 2.0 mg/kg/injection, schedule: Q01DX009 (ip), vehicle: saline with Tween-80) is 116 % of control; the T/C under setting [1] is 150 % of control; the T/C under setting [2] is 163 % of control; the T/C (dose: 44.0 mg/kg/injection, schedule: Q04DX003 (ip), vehicle: saline sonified) is 122 % of control. Moreover, the T/C by setting is: (dose: 50.0 mg/kg/injection, schedule: Q01DX009 (ip), vehicle: saline with Tween-80) 159 % of control; (dose: 66.0 mg/kg/injection, schedule: Q04DX003 (ip), vehicle: saline sonified) 111 % of control; (dose: 100.0 mg/kg/injection, schedule: Q01DX009 (ip), vehicle: saline sonified) 240 % of control; under setting [3], 111 % of control; (dose: 150.0 mg/kg/injection, schedule: Q04DX003 (ip), vehicle: saline sonified) 122 % of control; (dose: 200.0 mg/kg/injection, schedule: Q01DX009 (ip), vehicle: saline sonified) 95 % of control. The T/C (dose: 400.0 mg/kg/injection, schedule: Q01DX009 (ip), vehicle: saline sonified) is 90 % of control.

`C=CC(COC(=O)C(C)(C)OC(C)=O)c1ccc(OC(=O)C(C)C)c(OC)c1` (centres undefined): the T/C is 119 % of control (dose: 1.56 mg/kg/injection, schedule: Q01DX009 (ip), vehicle: saline); 100 % of control (dose: 3.13 mg/kg/injection, schedule: Q01DX009 (ip), vehicle: saline); 103 % of control (dose: 6.25 mg/kg/injection, schedule: Q01DX009 (ip), vehicle: saline); 100 % of control (dose: 12.5 mg/kg/injection, schedule: Q01DX009 (ip), vehicle: saline).

For `COc1cc([C@@H]2c3cc4c(cc3[C@@H](OC3OC5CO[C@@H](c6cccs6)OC5C(O)C3O)[C@H]3COC(=O)[C@H]23)OCO4)cc(OC)c1O` (some centres undefined), the T/C by setting is: (dose: 0.25 mg/kg/injection, schedule: Q01DX010 (ip), vehicle: saline) 166 % of control and 175 % of control; (dose: 0.5 mg/kg/injection, schedule: Q01DX010 (ip), vehicle: saline) 179 % of control and 183 % of control; (dose: 1.0 mg/kg/injection, schedule: Q01DX010 (ip), vehicle: saline) 166 % of control and 216 % of control; (dose: 2.0 mg/kg/injection, schedule: Q01DX010 (ip), vehicle: saline) 233 % of control and 250 % of control; (dose: 2.88 mg/kg/injection, schedule: Q04DX003 (ip), vehicle: saline) 300 % of control; (dose: 3.24 mg/kg/injection, schedule: Q04DX003 (ip), vehicle: clinical formulation) 327 % of control. Moreover, the T/C by setting is: (dose: 4.0 mg/kg/injection, schedule: Q01DX010 (ip), vehicle: saline) 100 % of control; (dose: 4.8 mg/kg/injection, schedule: Q04DX003 (ip), vehicle: saline) 596 % of control; (dose: 5.4 mg/kg/injection, schedule: Q04DX003 (ip), vehicle: clinical formulation) 557 % of control; (dose: 8.0 mg/kg/injection, schedule: Q04DX003 (ip), vehicle: saline) 378 % of control; (dose: 9.0 mg/kg/injection, schedule: Q04DX003 (ip), vehicle: clinical formulation) 557 % of control; (dose: 13.33 mg/kg/injection, schedule: Q04DX003 (ip), vehicle: saline) 240 % of control. Moreover, the T/C (dose: 15.0 mg/kg/injection, schedule: Q04DX003 (ip), vehicle: clinical formulation) was 558 % of control.

`CC1CC(C)(O)C2C3(C)CCCC2(COC3=O)C12CCC1(CCOC1=O)O2` (centres undefined): the T/C was 88 % of control (dose: 2.5 mg/kg/injection, schedule: Q01DX009 (ip), vehicle: Klucel (hydroxypropylcellulose) (HPC)); 106 % of control (dose: 5.0 mg/kg/injection, schedule: Q01DX009 (ip), vehicle: Klucel (hydroxypropylcellulose) (HPC)); 95 % of control (dose: 10.0 mg/kg/injection, schedule: Q01DX009 (ip), vehicle: Klucel (hydroxypropylcellulose) (HPC)).

As for `O=C(O)CNCc1ccc(Cl)cc1`, the T/C reads like this: (dose: 50.0 mg/kg/injection, schedule: Q04DX003 (ip), vehicle: water) 103 % of control; (dose: 100.0 mg/kg/injection, schedule: Q04DX003 (ip), vehicle: water) 90 % of control; (dose: 200.0 mg/kg/injection, schedule: Q04DX003 (ip), vehicle: water) 94 % of control.

On to `C/C=C1\C[N+]2(C)CCc3c([nH]c4ccccc34)C2CC1Cc1nccc2c1[nH]c1ccccc12` (centres undefined), for which the T/C reads like this: (dose: 1.0 mg/kg/injection, schedule: Q04DX003 (ip), vehicle: saline) 107 % of control; (dose: 2.0 mg/kg/injection, schedule: Q04DX003 (ip), vehicle: saline) 98 % of control; (dose: 4.0 mg/kg/injection, schedule: Q04DX003 (ip), vehicle: saline) 98 % of control; (dose: 6.0 mg/kg/injection, schedule: Q04DX003 (ip), vehicle: saline) 102 % of control; (dose: 12.0 mg/kg/injection, schedule: Q04DX003 (ip), vehicle: saline) 113 % of control; (dose: 24.0 mg/kg/injection, schedule: Q04DX003 (ip), vehicle: saline) 118 % of control. In addition, the T/C (dose: 48.0 mg/kg/injection, schedule: Q04DX003 (ip), vehicle: saline) was 110 % of control.

Turning to `Cc1nc2[nH]c(=O)ccc2c(C)c1N`, the T/C (dose: 100.0 mg/kg/injection, schedule: Q04DX002 (ip), vehicle: saline with Tween-80) was 92 % of control.

As for `COB(CCCCB(OC)OC)OC`, the T/C reads like this: under setting [3], 90 % of control; (dose: 200.0 mg/kg/injection, schedule: Q04DX003 (ip), vehicle: saline sonified) 86 % of control; (dose: 400.0 mg/kg/injection, schedule: Q04DX003 (ip), vehicle: saline sonified) 100 % of control.

On to `NOCc1ccc(CON)cc1`, for which the T/C was 87 % of control (dose: 50.0 mg/kg/injection, schedule: Q04DX003 (ip), vehicle: saline); 91 % of control (dose: 100.0 mg/kg/injection, schedule: Q04DX003 (ip), vehicle: saline); 95 % of control (dose: 200.0 mg/kg/injection, schedule: Q04DX003 (ip), vehicle: saline).

For `O=C(/C=C(\CN1CCCCC1)c1ccccc1)c1ccccc1`, the T/C was 100 % of control (dose: 25.0 mg/kg/injection, schedule: Q01DX009 (ip), vehicle: Klucel (hydroxypropylcellulose) (HPC)); 91 % of control (dose: 25.0 mg/kg/injection, schedule: Q04DX003 (ip), vehicle: Klucel (hydroxypropylcellulose) (HPC)); 104 % of control (dose: 50.0 mg/kg/injection, schedule: Q01DX009 (ip), vehicle: Klucel (hydroxypropylcellulose) (HPC)); 104 % of control (dose: 50.0 mg/kg/injection, schedule: Q04DX003 (ip), vehicle: Klucel (hydroxypropylcellulose) (HPC)); 109 % of control (dose: 100.0 mg/kg/injection, schedule: Q01DX009 (ip), vehicle: Klucel (hydroxypropylcellulose) (HPC)); 108 % of control (dose: 100.0 mg/kg/injection, schedule: Q04DX003 (ip), vehicle: Klucel (hydroxypropylcellulose) (HPC)).

The values above are taken from PubChem BioAssay AID328 (DTP/NCI, 2004).
